Where a SMILES comes first, the peptide text is derived from it. Where no end group is shown, it is not given here.
How the values were obtained:
[1] = tested on: Hos:HR-1 mice (UVB-irradiated back skin); experiment: UVB-irradiated mouse back skin; amount of water evaporation (Tewameter TM300) to evaluate the barrier function of keratin; format: in vivo; conditions: for rate of increase in the total amount of water evaporation from the 1st day to the 10th day after UVB irradiation: 1 mg/ml ointment, increase of Comparative Example (5-2) over non-irradiated (5-1) defined as 100%
Procedure: A GPIGS [SEQ ID NO: 6] solution (1) was prepared in the same way as in Example 1.
Mice used were 10-week-old mice (produced by Japan SLC. Inc, Hos:HR-1 line) raised for 1 week or longer in the breeding room of National Institute of Advanced Industrial Science and Technology and acclimatized.
The backs of the mice fixed under pentobarbital anesthesia were irradiated with 150 mJ/cm^2 UVB for 5 days (once a day) to cause skin damage. A 100 μl portion of the drug solution was applied once a day immediately after UVB irradiation to each of the skin surfaces of the backs. An amount of water evaporation in the skin surfaces of the backs was measured with Tewameter TM300 (manufactured by Courage+Khazaka electronic GmbH.) to evaluate the barrier function of keratin.
All the experiments were conducted using four mice.
The data in FIG. 2 are indicated with mean±standard deviation (mean±S.E.). Statistical analysis was conducted by Student's t-test (Stat View J-4.02, Abacus Concepts Inc.). A significant level less than 5% (p<0.05) means that a significant difference is present. In this context, the open triangle denotes (2-1) without UVB irradiation; x denotes (2-2) (Comparative Example) using a solution containing the GPIGS [SEQ ID NO: 6] solution (1) except for GPIGS [SEQ ID NO: 6]; and the solid diamond denotes Example of the present application (2-3).

[2] = tested on: BALB/c mice (DNFB-induced dermatitis, auricle skin); experiment: DNFB-induced dermatitis in mouse earlobes; amount of water evaporation (Tewameter TM300) to evaluate the barrier function of keratin; format: in vivo
Procedure: A 1 mg portion of glycylprolylisoleucylglycylserine (SEQ ID NO: 6) (hereinafter, also referred to as “GPIGS”) (manufactured by AMERICAN PEPTIDE COMPANY, Inc., lot. CC-09-119) was weighed. This GPIGS [SEQ ID NO: 6] was dissolved by the addition of 300 μl of Otsuka distilled water for injection (manufactured by Otsuka Pharmaceutical Co., Ltd., cat. 322134). Then, this solution was mixed with 200 μl of propylene glycol (manufactured by Wako Pure Chemical Industries, Ltd., cat. 161-05006) and 500 μl of ethanol (manufactured by Wako Pure Chemical Industries, Ltd., cat. 057-00456) to prepare 1 mg/ml GPIGS [SEQ ID NO: 6] solution (1).
Seven-week-old mice (produced by Japan SLC. Inc, BALB/c line) were raised for 1 week and acclimatized.
A 10 μl portion (14.5 mg) of […] (manufactured by NACALAI TESQUE, INC., cat. 135-12) (DNFB) was added to 9.7 ml of (acetone:olive oil=3:1) solution to prepare 1.5 mg/ml DNFB solution.
A 25 μl portion of 1.5 mg/ml DNFB solution was applied five times (once a week) to each of the front and back sides of the left and right earlobes of the BALB/c mice (8-week-old).
From one day after the 4th DNFB solution application, 25 μl of the drug solution was applied once a day to each of the front and back sides of the left and right earlobes (in the 5th DNFB solution application, the GPIGS [SEQ ID NO: 6] solution (1) was applied 1 hour before DNFB application). Forty-eight hours after the 5th DNFB solution application, an amount of water evaporation in the auricle surfaces was measured with Tewameter TM300 (manufactured by Courage+Khazaka electronic GmbH.) to evaluate the barrier function of keratin (1-3) (the present invention).
The barrier function of keratin was also evaluated on (1-1) wherein the same procedures aforementioned were performed except that a (acetone:olive oil=3:1) solution was applied instead of the DNFB solution and (1-2) (Comparative Example) wherein the same procedures aforementioned were performed except that a solution containing the GPIGS [SEQ ID NO: 6] solution (1) except for GPIGS [SEQ ID NO: 6] was used.
All the experiments were conducted using five mice.
The data in FIG. 1 are indicated with mean±standard deviation (mean±S.E.). Statistical analysis was conducted by Student's t-test (Stat View J-4.02, Abacus Concepts Inc.). A significant level less than 5% (p<0.05) means that a significant difference is present.

[3] = 1 mg/ml solution (water/propylene glycol/ethanol), 25 μl once a day on earlobes, 48 h after 5th DNFB application, vehicle control 13.11 (GPIGS experiment), 9.29 (IGS experiment)

Molecule | rate of increase in the total amount of water evaporation from the 1st day to the 10th day after UVB irradiation [1] | amount of water evaporation [2, 3] | amount of water evaporation compared with Comparative Example (2-2) ([1]; 1 mg/ml solution, 100 μl once a day after 150 mJ/cm^2 UVB, following the fourth day after UVB irradiation) | amount of water evaporation ([2]; 1 mg/ml ointment (3-3), base ointment control 8.42, no DNFB 1.83) | amount of water evaporation ([2]; 3 mg/ml ointment (3-4), base ointment control 8.42, no DNFB 1.83) | barrier function of keratin compared with Example 1 ([2]; 3 mg/ml solution, otherwise as Example 1) | dermatitis of each mouse ([2]; ointment (10 mg GPIGS with Hiviswako 104, propylene glycol, diisopropanolamine, gentamycin, water), mice treated as in Examples 1 and 2)
CC[C@H](C)[C@H](N)C(=O)NCC(=O)N[C@@H](CO)C(=O)O [IGS, isoleucylglycylserine] (H-Ile-Gly-Ser-OH) | 55.4% | 5.57 g/m^2/hr |  |  |  |  | 
GPIGS [GPIGS, glycylprolylisoleucylglycylserine] | 82.1% | 11.30 g/m^2/hr | significantly lower | 5.23 g/m^2/hr | 3.89 g/m^2/hr | more excellent barrier function of keratin | improvement

Source: patent US7820625B2, “UV-induced dermatitis inhibitor and atopic dermatitis inhibitor” (National Institute of Advanced Industrial Science and …, priority 2005, dated 2010)
